Measurements: ChEMBL document CHEMBL2440092, “Investigation of aryl halides as ketone bioisosteres: refinement of potent and selective inhibitors of human cytochrome P450 19A1 (aromatase)” (Bioorg Med Chem Lett, 2013)

Biological target: T1, Aromatase (Homo sapiens, UniProt P11511)
T1 sequence (P11511 whole entry): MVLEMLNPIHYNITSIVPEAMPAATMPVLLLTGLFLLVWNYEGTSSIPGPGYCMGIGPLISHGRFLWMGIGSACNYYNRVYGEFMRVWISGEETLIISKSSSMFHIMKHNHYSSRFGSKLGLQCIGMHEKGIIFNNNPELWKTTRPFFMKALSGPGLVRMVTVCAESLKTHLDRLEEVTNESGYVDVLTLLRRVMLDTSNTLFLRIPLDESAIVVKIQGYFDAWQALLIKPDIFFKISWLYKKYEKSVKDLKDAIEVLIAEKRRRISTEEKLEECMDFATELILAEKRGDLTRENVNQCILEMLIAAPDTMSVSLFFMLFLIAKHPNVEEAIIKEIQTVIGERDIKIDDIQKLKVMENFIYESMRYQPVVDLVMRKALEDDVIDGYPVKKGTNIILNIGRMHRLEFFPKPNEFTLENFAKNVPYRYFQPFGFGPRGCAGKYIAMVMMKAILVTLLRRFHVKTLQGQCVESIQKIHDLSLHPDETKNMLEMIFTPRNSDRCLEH
Description: Inhibition of recombinant human aromatase using O-dibenzylfluorescein benzyl ester as substrate by fluorometric assay

Row | SMILES | Ki [nM]
1 | O[C@@H](c1ccccc1)[C@@H](Cn1ccnn1)c1ccc(Br)cc1 | 820
2 | CC(=O)O[C@@H](c1ccc(F)cc1)[C@H](Cn1ccnn1)c1ccccc1 | 350
3 | CC(=O)O[C@@H](c1ccccc1)[C@@H](Cn1ccnn1)c1ccc(Br)cc1 | 237
4 | CC(=O)O[C@@H](c1ccccc1)[C@H](Cn1ccnn1)c1ccc(Br)cc1 | 647
5 | O[C@@H](c1ccccc1)[C@H](Cn1ccnn1)c1ccc(Br)cc1 | 841
6 | COCO[C@@H](c1ccccc1)[C@@H](Cn1ccnn1)c1ccc(Br)cc1 | 111
7 | O[C@@H](c1ccc(F)cc1)[C@@H](Cn1ccnn1)c1ccccc1 | 330
8 | O[C@@H](c1ccc(F)cc1)[C@H](Cn1ccnn1)c1ccccc1 | 200
9 | COCO[C@@H](c1ccc(F)cc1)[C@H](Cn1ccnn1)c1ccccc1 | 160

Further lines, results first:

Row | Ki [nM] | SMILES
10 | 80 | COCO[C@@H](c1ccc(F)cc1)[C@@H](Cn1ccnn1)c1ccccc1
11 | 110 | CC(=O)O[C@@H](c1ccc(F)cc1)[C@@H](Cn1ccnn1)c1ccccc1
12 | 20 | COCO[C@@H](c1ccc(Br)cc1)[C@@H](Cn1ccnn1)c1ccccc1
13 | 70 | COCO[C@@H](c1ccc(Br)cc1)[C@H](Cn1ccnn1)c1ccccc1
14 | 20 | COCO[C@@H](c1ccccc1)[C@H](Cn1ccnn1)c1ccc(Br)cc1
15 | 90 | CC(=O)O[C@@H](c1ccc(Br)cc1)[C@@H](Cn1ccnn1)c1ccccc1
